The source made the active and inactive calls. The calls are words filed in the database; no cut-off is given here.
Key:
[1] = Cytotoxicity against mouse LLC cells assessed as survival fraction at 0.1 to 1.5 uM after 4 hrs by MTS reduction assay under dark condition; type: cell-based; conditions: lewis lung carcinoma
[2] = Cytotoxicity against mouse LLC cells assessed as survival fraction at 0.1 to 1.5 uM after 12 hrs by MTS reduction assay under dark condition; type: cell-based; conditions: lewis lung carcinoma
[3] = test system: Lewis lung carcinoma cell line; assay: Antiproliferative activity against mouse LLC cells assessed as survival fraction at 0.5 uM after 4 hrs pretreated with 15 J/cm2 red light-irradiation by MTS reduction assay; type: functional
[4] = test system: Lewis lung carcinoma cell line; assay: Antiproliferative activity against mouse LLC cells assessed as survival fraction at 0.5 uM dissolved in DMSO after 4 hrs pretreated with 15 J/cm2 red light-irradiation by MTS reduction assay; type: functional
[5] = test system: Lewis lung carcinoma cell line; assay: Antiproliferative activity against mouse LLC cells assessed as survival fraction at 0.5 uM dissolved in DMSO after 12 hrs pretreated with 15 J/cm2 red light-irradiation by MTS reduction assay; type: functional
[6] = test system: Lewis lung carcinoma cell line; assay: Antiproliferative activity against mouse LLC cells assessed as survival fraction at 0.5 uM in liposomal delivery system after 4 hrs pretreated with 15 J/cm2 red light-irradiation by MTS reduction assay; type: functional
[7] = test system: Lewis lung carcinoma cell line; assay: Antiproliferative activity against mouse LLC cells assessed as survival fraction at 0.5 uM in liposomal delivery system after 12 hrs pretreated with 15 J/cm2 red light-irradiation by MTS reduction assay; type: functional
[8] = Cytotoxicity against mouse LLC cells assessed as change in cell morphology at 2 uM after 12 hrs by fluorescence microscopy under dark condition; type: cell-based; conditions: lewis lung carcinoma
[9] = test system: Lewis lung carcinoma cell line; assay: Antiproliferative activity against mouse LLC cells assessed as F-actin construction damage at 2 uM in liposomal delivery system after 12 hrs pretreated with 15 J/cm2 red light-irradiation by fluorescence microscopy; type: functional, cell-based
[10] = test system: Lewis lung carcinoma cell line; assay: Antiproliferative activity against mouse LLC cells assessed as nuclear damage at 2 uM in liposomal delivery system after 12 hrs pretreated with 15 J/cm2 red light-irradiation by fluorescence microscopy; type: functional, cell-based
[11] = test system: Lewis lung carcinoma cell line; assay: Antiproliferative activity against mouse LLC cells assessed as DNA […] at 2 uM in liposomal delivery system after 12 hrs pretreated with 15 J/cm2 red light-irradiation by fluorescence microscopy; type: functional, cell-based
[12] = test system: Lewis lung carcinoma cell line; assay: Antiproliferative activity against mouse LLC cells assessed as survival fraction at 5 uM after 24 hrs pretreated with 15 J/cm2 red light-irradiation by MTS reduction assay; type: functional

Row | SMILES | Activity [1] | Activity [2] | Activity [3] [%] | Activity [4] [%] | Activity [5] [%] | Activity [6] [%] | Activity [7] [%] | Activity [8] | Activity [9] | Activity [10] | Activity [11] | Activity [12] [%]
1 | CCCCCCCC1c2cc3[nH]c(cc4nc(cc5[nH]c(cc(n2)[C@]1(C)CC(=O)N(C)C)c(C)c5CCC(=O)O)C(CCC(=O)O)=C4C)cc3C (mixture of isomers) | Non-toxic | Non-toxic | 22.3 | 70.6 | 74.4 | 20.3 | 34.8 | Toxic | Active | Active | Active | 
2 | C=CC1=C(C)c2cc3[nH]c(cc4nc(cc5[nH]c(cc1n2)c(C)c5CCC(=O)[O-])C(CCC(=O)[O-])=C4C)c(C)c3C=C.[Na+].[Na+] [PROTOPORPHYRIN DISODIUM] |  |  |  |  |  |  |  |  |  |  |  | 60.7

— ChEMBL document CHEMBL1153094, “Spectroscopic and biological studies of a novel synthetic chlorin derivative with prospects for use in PDT” (Bioorg Med Chem, 2009)
